Assay results taken from ChEMBL document CHEMBL4765323, “Design, synthesis, and biological evaluation of novel miconazole analogues containing selenium as potent antifungal agents” (Eur J Med Chem, 2020).
≈ marks a conversion by molar mass, not a printed value. Calls of active or inactive are those of the source. The rule behind the calls is not given here.

What was measured:
Candida albicans [1] = test: Inhibition of CYP51 in azole-resistant Candida albicans ATCC […] assessed as Lanosterol level at 0.5 ug/ml incubated for 16 hrs by LC-MS analysis relative to control; design: scale not given: the % may be the effect or the level left; details: dose 0.5 µg/ml
Candida albicans [2] = test: Inhibition of CYP51 in azole-resistant Candida albicans ATCC […] assessed as ergosterol level at 0.125 ug/ml incubated for 16 hrs by LC-MS analysis relative to control; design: scale not given: the % may be the effect or the level left; details: dose 0.125 µg/ml
Candida albicans [3] = test: Inhibition of CYP51 in azole-resistant Candida albicans ATCC […] assessed as inhibition of ergosterol biosynthesis by measuring ergosterol content at 8 ug/ml incubated for 16 hrs by LC-MS analysis relative to control; design: scale not given: the % may be the effect or the level left; details: dose 8.0 µg/ml
Cryptococcus neoformans = test: Antifungal activity against Cryptococcus neoformans CGMCC2.3161 measured after 72 hrs by micro-broth dilution assay; assay type: functional
Candida parapsilosis = test: Antifungal activity against Candida parapsilosis ATCC 22019 measured after 24 hrs by micro-broth dilution assay; assay type: functional; details: Lodderomyces parapsilosis
Nakaseomyces glabratus = test: Antifungal activity against clinical isolate Candida glabrata measured after 24 hrs by micro-broth dilution assay; assay type: functional
Candida albicans [4] = test: Antibiofilm activity against FCZ-Resistant Candida albicans CPCC400616 assessed as sessile minimum inhibitory concentration of biofilm formation at 80% after 24 hrs by XTT assay; assay type: functional
Pichia kudriavzevii = test: Antifungal activity against Candida krusei AS 2.1045 measured after 24 hrs by micro-broth dilution assay; assay type: functional
Candida albicans [5] = test: Inhibition of CYP51 in azole-resistant Candida albicans ATCC […] assessed as Eburicol level at 0.125 ug/ml incubated for 16 hrs by LC-MS analysis relative to control; design: scale not given: the % may be the effect or the level left; details: dose 0.125 µg/ml
Candida albicans [6] = test: Inhibition of CYP51 in azole-resistant Candida albicans ATCC […] assessed as Lanosterol level at 8 ug/ml incubated for 16 hrs by LC-MS analysis relative to control; design: scale not given: the % may be the effect or the level left; details: dose 8.0 µg/ml
Aspergillus fumigatus = test: Antifungal activity against Aspergillus fumigatus CGMCC 3.7795 measured after 72 hrs by micro-broth dilution assay; assay type: functional
Candida albicans [7] = test: Inhibition of CYP51 in azole-resistant Candida albicans ATCC […] assessed as Lanosterol level at 2 ug/ml incubated for 16 hrs by LC-MS analysis relative to control; design: scale not given: the % may be the effect or the level left; details: dose 2.0 µg/ml
Candida albicans [8] = test: Antifungal activity against Candida albicans ATCC SC5314 measured after 24 hrs by micro-broth dilution assay; assay type: functional
Candida albicans [9] = test: Inhibition of CYP51 in azole-resistant Candida albicans ATCC […] assessed as Eburicol level at 0.5 ug/ml incubated for 16 hrs by LC-MS analysis relative to control; design: scale not given: the % may be the effect or the level left; details: dose 0.5 µg/ml
Candida albicans [10] = test: Fungicidal activity against Candida albicans CPCC400616 at 8 times MIC measured after 4 hrs by time-kill curve assay; assay type: functional, organism-based
Candida albicans [11] = test: Antibiofilm activity against FCZ-Resistant Candida albicans CPCC400616 assessed as sessile minimum inhibitory concentration of biofilm formation at 80% after 6 hrs by XTT assay; assay type: functional
Candida albicans [12] = test: Inhibition of CYP51 in azole-resistant Candida albicans ATCC […] assessed as Eburicol level at 0.03125 ug/ml incubated for 16 hrs by LC-MS analysis relative to control; design: scale not given: the % may be the effect or the level left; details: dose 0.03125 µg/ml
[13] = Ratio of hemolysis activity in rabbit RBC to MIC for Candida albicans; assay type: toxicity; details: rabbit red blood cells (RBC)
Candida albicans [14] = test: Fungicidal activity against Candida albicans CPCC400616 at MIC to 8 times MIC measured after 24 hrs by time-kill curve assay; assay type: functional
Candida albicans [15] = test: Inhibition of CYP51 in azole-resistant Candida albicans ATCC […] assessed as Obtusifoliol level at 8 ug/ml incubated for 16 hrs by LC-MS analysis relative to control; design: scale not given: the % may be the effect or the level left; details: dose 8.0 µg/ml
Candida albicans [16] = test: Antifungal activity against fluconazole-resistant Candida albicans 632 measured after 24 hrs by micro-broth dilution assay; assay type: functional
Candida albicans [17] = test: Antifungal activity against fluconazole-resistant Candida albicans 17 measured after 24 hrs by micro-broth dilution assay; assay type: functional
Erythrocyte = test: Hemolytic activity in rabbit RBC assessed as hemolysis ratio at 1 ug/ml measured after 3 hrs relative to control; assay type: ADME, cell-based, Oryctolagus cuniculus; details: dose 1 µg/ml
Candida albicans [18] = test: Fungicidal activity against Candida albicans CPCC400616 measured after 48 hrs; assay type: functional
Candida albicans [19] = test: Antibiofilm activity against FCZ-Resistant Candida albicans CPCC400616 assessed as sessile minimum inhibitory concentration of biofilm formation at 50% after 3 hrs by XTT assay; assay type: functional
Candida albicans [20] = test: Antifungal activity against Candida albicans CPCC400616 measured after 24 hrs by micro-broth dilution assay; assay type: functional
Candida albicans [21] = test: Antibiofilm activity against FCZ-Resistant Candida albicans CPCC400616 assessed as sessile minimum inhibitory concentration of biofilm formation at 50% after 24 hrs by XTT assay; assay type: functional
Candida albicans [22] = test: Inhibition of CYP51 in azole-resistant Candida albicans ATCC […] assessed as Eburicol level at 8 ug/ml incubated for 16 hrs by LC-MS analysis relative to control; design: scale not given: the % may be the effect or the level left; details: dose 8.0 µg/ml
Candida albicans [23] = test: Antifungal activity against fluconazole-resistant Candida albicans strain 904 measured after 24 hrs by micro-broth dilution assay; assay type: functional
Candida albicans [24] = test: Inhibition of CYP51 in azole-resistant Candida albicans ATCC […] assessed as ergosterol level at 0.5 ug/ml incubated for 16 hrs by LC-MS analysis relative to control; design: scale not given: the % may be the effect or the level left; details: dose 0.5 µg/ml
Candida albicans [25] = test: Inhibition of CYP51 in azole-resistant Candida albicans ATCC […] assessed as Obtusifoliol level at 0.03125 ug/ml incubated for 16 hrs by LC-MS analysis relative to control; design: scale not given: the % may be the effect or the level left; details: dose 0.03125 µg/ml
[26] = Ratio of MFC for fungicidal activity against Candida albicans CPCC400616 to MIC for Antifungal activity against Candida albicans CPCC400616; assay type: functional; details: time 24 hrs
Candida albicans [27] = test: Inhibition of CYP51 in azole-resistant Candida albicans ATCC […] assessed as Lanosterol level at 0.03125 ug/ml incubated for 16 hrs by LC-MS analysis relative to control; design: scale not given: the % may be the effect or the level left; details: dose 0.03125 µg/ml
Candida albicans [28] = test: Inhibition of CYP51 in azole-resistant Candida albicans ATCC […] assessed as ergosterol level at 0.03125 ug/ml incubated for 16 hrs by LC-MS analysis relative to control; design: scale not given: the % may be the effect or the level left; details: dose 0.03125 µg/ml
Candida albicans [29] = test: Inhibition of CYP51 in azole-resistant Candida albicans ATCC […] assessed as ergosterol level at 2 ug/ml incubated for 16 hrs by LC-MS analysis relative to control; design: scale not given: the % may be the effect or the level left; details: dose 2.0 µg/ml
Candida albicans [30] = test: Inhibition of CYP51 in azole-resistant Candida albicans ATCC […] assessed as Eburicol level at 2 ug/ml incubated for 16 hrs by LC-MS analysis relative to control; design: scale not given: the % may be the effect or the level left; details: dose 2.0 µg/ml
Candida albicans [31] = test: Antibiofilm activity against FCZ-Resistant Candida albicans CPCC400616 assessed as sessile minimum inhibitory concentration of biofilm formation at 80% after 3 hrs by XTT assay; assay type: functional
Candida albicans [32] = test: Antifungal activity against Candida albicans 901 measured after 24 hrs by micro-broth dilution assay; assay type: functional
Candida albicans [33] = test: Inhibition of CYP51 in azole-resistant Candida albicans ATCC […] assessed as Obtusifoliol level at 0.125 ug/ml incubated for 16 hrs by LC-MS analysis relative to control; design: scale not given: the % may be the effect or the level left; details: dose 0.125 µg/ml
Candida albicans [34] = test: Antibiofilm activity against FCZ-Resistant Candida albicans CPCC400616 assessed as sessile minimum inhibitory concentration of biofilm formation at 50% after 1.5 hrs by XTT assay; assay type: functional
[Candida] zeylanoides = Antifungal activity against Candida zeylanoides CMGCC2.3739 measured after 24 hrs by micro-broth dilution assay; assay type: functional; details: Dujonia zeylanoides
Candida albicans [35] = test: Inhibition of CYP51 in azole-resistant Candida albicans ATCC […] assessed as Lanosterol level at 0.125 ug/ml incubated for 16 hrs by LC-MS analysis relative to control; design: scale not given: the % may be the effect or the level left; details: dose 0.125 µg/ml
Candida albicans [36] = test: Inhibition of CYP51 in azole-resistant Candida albicans ATCC […] assessed as Obtusifoliol level at 2 ug/ml incubated for 16 hrs by LC-MS analysis relative to control; design: scale not given: the % may be the effect or the level left; details: dose 2.0 µg/ml
Candida albicans [37] = test: Antifungal activity against fluconazole-resistant Candida albicans CaR measured after 24 hrs by micro-broth dilution assay; assay type: functional
Candida albicans [38] = test: Antibiofilm activity against FCZ-Resistant Candida albicans CPCC400616 assessed as sessile minimum inhibitory concentration of biofilm formation at 80% after 1.5 hrs by XTT assay; assay type: functional
Candida albicans [39] = test: Inhibition of CYP51 in azole-resistant Candida albicans ATCC […] assessed as Obtusifoliol level at 0.5 ug/ml incubated for 16 hrs by LC-MS analysis relative to control; design: scale not given: the % may be the effect or the level left; details: dose 0.5 µg/ml
Candida albicans [40] = test: Antibiofilm activity against FCZ-Resistant Candida albicans CPCC400616 assessed as sessile minimum inhibitory concentration of biofilm formation at 50% after 6 hrs by XTT assay; assay type: functional

Clc1ccc(C(Cn2ccnc2)[Se]Cc2ccccc2Cl)c(Cl)c1 (configuration not stated)
Activity (Candida albicans [1]): 10%
Activity (Candida albicans [2]): 80.3%
Activity (Candida albicans [3]): 77.7%
MIC (Cryptococcus neoformans): 0.25 µg/mL (≈ 0.562 µM)
MIC (Candida parapsilosis): 0.13 µg/mL (≈ 0.292 µM)
MIC (Nakaseomyces glabratus): 0.5 µg/mL (≈ 1.12 µM)
Activity (Candida albicans [4]): >128 µg/mL
MIC (Pichia kudriavzevii): 0.13 µg/mL (≈ 0.292 µM)
Activity (Candida albicans [5]): 5.3%
Activity (Candida albicans [6]): 12.4%
MIC (Aspergillus fumigatus): 2 µg/mL (≈ 4.5 µM)
Activity (Candida albicans [7]): 13.6%
MIC (Candida albicans [8]): 0.01 µg/mL (≈ 0.0225 µM)
Activity (Candida albicans [9]): 70.3%
Activity (Candida albicans [10]): Active
Activity (Candida albicans [11]): >128 µg/mL
Activity (Candida albicans [12]): 7.4%
selectivity ratio [13]: 256
Activity (Candida albicans [14]): >3 log10CFU/ml
Activity (Candida albicans [15]): 8.1%
MIC (Candida albicans [16]): 1 µg/mL (≈ 2.25 µM)
MIC (Candida albicans [17]): 0.13 µg/mL (≈ 0.292 µM)
Activity (Erythrocyte): 0 µg/mL
MIC (Candida albicans [18]): 0.125 µg/mL (≈ 0.281 µM)
Activity (Candida albicans [19]): 16 µg/mL
MIC (Candida albicans [20]): 0.02 µg/mL (≈ 0.045 µM)
Activity (Candida albicans [21]): >128 µg/mL
Activity (Candida albicans [22]): 64.6%
MIC (Candida albicans [23]): 0.25 µg/mL (≈ 0.562 µM)
Activity (Candida albicans [24]): 78.9%
Activity (Candida albicans [25]): 1%
MFC/MIC ratio [26]: 8
Activity (Candida albicans [27]): 0%
Activity (Candida albicans [28]): 86.4%
Activity (Candida albicans [29]): 19.8%
Activity (Candida albicans [30]): 75.1%
Activity (Candida albicans [31]): 64 µg/mL
MIC (Candida albicans [32]): 0.5 µg/mL (≈ 1.12 µM)
Activity (Candida albicans [33]): 9.5%
Activity (Candida albicans [34]): 4 µg/mL
MIC ([Candida] zeylanoides): 1 µg/mL (≈ 2.25 µM)
Activity (Candida albicans [35]): 11.6%
Activity (Candida albicans [36]): 7.8%
MIC (Candida albicans [37]): 0.06 µg/mL (≈ 0.135 µM)
Activity (Candida albicans [38]): 8 µg/mL
Activity (Candida albicans [39]): 17.4%
Activity (Candida albicans [40]): 128 µg/mL
